Reference: patent EP4151201A1, “SHEET PRODUCT” (Kao Corporation, priority 2020, dated 2021)

Test: Krafft point of the anionic surfactant
Format: physicochemical
Details: Krafft point at 10 mass% in aqueous solution; unit not given, Krafft points in °C
Protocol: The present invention uses a view that the Krafft point is a melting point of a hydrated solid of a surfactant. That is, the Krafft point is the temperature at which a surfactant precipitates when an aqueous solution thereof is cooled. In some kinds of surfactants, the Krafft point changes depending on the concentration. In the present invention, an anionic surfactant having a Krafft point of 45°C or more at a concentration of 10 mass% in an aqueous solution is used. The Krafft point can be measured using a differential scanning calorimetry.

For `CCCCCCCCCCCCCCCCCC(=O)N(C)CCS(=O)(=O)[O-].[Na+]` [Sodium N-stearoyl-N-methyltaurate], the “Kp (Krafft point)” value was “Sodium N-stearoyl-N-methyltaurate (Kp = 50) (Nikkol SMT, manufactured by Nikko Chemicals Co., Ltd.)”.

For `CCCCCCCCCCCC(=O)[O-].[Na+]` [Sodium laurate], the “Kp (Krafft point)” value was “Sodium laurate (Kp ≈ 38)”.

In the case of `CCCCCCCCCCCCCCCCCC(=O)[O-].[Na+]` [Sodium stearate], the “Kp (Krafft point)” value is reported as “Sodium stearate (Kp = 79)”.
